Data as given in patent US20110230472A1, “RING-FUSED AZOLE DERIVATIVE HAVING PI3K-INHIBITING ACTIVITY” (Shionogi & Co., Ltd., priority 2008, published 2011).
pIC50: −log10 of the molar value.

Key:
CYP2D6 = molecular target: T1, CYP2D6 (Homo sapiens, UniProt P10635); test: CYP inhibition test, pooled human liver microsome, CYP2D6; format: in vitro ADME; settings: O-demethylation of dextromethorphan
T1 construct: enzyme: pooled human liver microsome 0.2 mg protein/mL; from tissue; host or cells: pooled human liver microsome
T1 sequence (P10635 whole entry): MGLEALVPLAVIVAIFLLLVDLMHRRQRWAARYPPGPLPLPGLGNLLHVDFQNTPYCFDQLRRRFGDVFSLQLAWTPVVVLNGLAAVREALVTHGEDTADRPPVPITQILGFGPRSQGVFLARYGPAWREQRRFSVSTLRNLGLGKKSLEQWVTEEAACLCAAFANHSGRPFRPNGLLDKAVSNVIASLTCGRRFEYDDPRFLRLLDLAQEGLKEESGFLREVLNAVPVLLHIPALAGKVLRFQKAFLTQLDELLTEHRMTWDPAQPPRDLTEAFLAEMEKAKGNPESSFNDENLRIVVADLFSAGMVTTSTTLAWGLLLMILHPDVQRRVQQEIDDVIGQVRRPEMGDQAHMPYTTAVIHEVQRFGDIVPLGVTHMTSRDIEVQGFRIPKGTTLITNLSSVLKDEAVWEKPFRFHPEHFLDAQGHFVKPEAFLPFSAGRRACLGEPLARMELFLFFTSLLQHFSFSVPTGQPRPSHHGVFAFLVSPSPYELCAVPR
Procedure, shortened: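 Pooled human liver microsomes (0.2 mg protein/mL) in 50 mmol/L Hepes with NADPH, 15 min at 37° C; test drug at 1, 5, 10, 20 μmol/L. Substrates: 0.5 μmol/L ethoxyresorufin (1A2, resorufin by fluorescence), 100 μmol/L tolbutamide (2C9), 5 μmol/L dextromethorphan (2D6), 1 μmol/L terfenadine (3A4), metabolites by LC/MS/MS. IC50 from remaining activity vs DMSO control, logistic model.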

PI-3 kinase γ = PI-3 kinase γ (Homo sapiens, UniProt P48736); test: PI3Kγ inhibitory activity, PI3-kinase HTRF assay (inhibition ratio); format: biochemical; settings: 0.5 h; for inhibition at 50 µM: compound at 50 μM
PI-3 kinase γ, sequence (P48736 whole entry): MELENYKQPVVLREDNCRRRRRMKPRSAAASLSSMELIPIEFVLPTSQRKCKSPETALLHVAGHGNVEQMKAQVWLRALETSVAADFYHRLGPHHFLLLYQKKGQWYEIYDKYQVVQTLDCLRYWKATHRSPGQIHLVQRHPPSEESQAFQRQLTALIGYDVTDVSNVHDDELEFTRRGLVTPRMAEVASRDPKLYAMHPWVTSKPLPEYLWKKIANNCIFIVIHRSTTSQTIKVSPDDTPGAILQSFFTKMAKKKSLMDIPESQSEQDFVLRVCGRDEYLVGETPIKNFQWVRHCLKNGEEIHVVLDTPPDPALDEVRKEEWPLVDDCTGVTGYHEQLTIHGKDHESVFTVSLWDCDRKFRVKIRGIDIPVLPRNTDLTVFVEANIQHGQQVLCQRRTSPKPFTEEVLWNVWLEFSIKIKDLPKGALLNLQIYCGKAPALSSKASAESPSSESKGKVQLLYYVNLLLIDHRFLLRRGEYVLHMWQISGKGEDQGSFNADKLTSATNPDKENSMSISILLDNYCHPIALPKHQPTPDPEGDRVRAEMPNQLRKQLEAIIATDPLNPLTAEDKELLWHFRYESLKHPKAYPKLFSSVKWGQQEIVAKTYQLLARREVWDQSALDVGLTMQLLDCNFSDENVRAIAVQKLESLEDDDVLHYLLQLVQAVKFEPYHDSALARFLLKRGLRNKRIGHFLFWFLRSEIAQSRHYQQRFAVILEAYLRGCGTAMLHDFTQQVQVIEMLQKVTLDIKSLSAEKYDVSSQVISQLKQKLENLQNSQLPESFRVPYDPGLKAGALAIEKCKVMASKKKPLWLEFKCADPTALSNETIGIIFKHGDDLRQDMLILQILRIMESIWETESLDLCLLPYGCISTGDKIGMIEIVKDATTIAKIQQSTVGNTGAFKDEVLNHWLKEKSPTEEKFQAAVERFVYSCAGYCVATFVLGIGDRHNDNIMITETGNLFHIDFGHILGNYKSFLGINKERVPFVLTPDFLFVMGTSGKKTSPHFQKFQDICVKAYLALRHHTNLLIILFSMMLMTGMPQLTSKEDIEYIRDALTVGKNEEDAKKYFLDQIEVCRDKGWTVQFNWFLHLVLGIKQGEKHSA
Procedure, shortened: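 Single-concentration inhibition ratio (50 or 10 μmol/L compound) versus no-compound (100%) and no-enzyme (0%) wells. Reaction: PI-3 kinase γ, PIP2, ATP, MgCl2/DTT, 30 min at RT after 10 min preincubation. Read-out: HTRF 665/620 nm after 18 h detection.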

Metabolic stability test = format: in vitro ADME; settings: human liver microsome 0.5 mg protein/mL, 1 mmol/L NADPH, 37° C.
Procedure, shortened: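 Pooled human liver microsomes (0.5 mg protein/mL) incubated with compound and 1 mmol/L NADPH at 37° C. in pH 7.4 Tris buffer for 0 or 30 min. Parent quantified by LC/MS/MS after methanol/acetonitrile quench; value is % remaining at 30 min versus 0 min.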
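For percentage of the test compound remained after reacting for 30 minutes in this document: 100% equals the compound amount at 0 min reaction.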

pIC50 (CYP2D6) | inhibition at 50 µM (PI-3 kinase γ; PI3Kγ) [%] | percentage of the test compound remained after reacting for 30 minutes (Metabolic stability test) [%] | inhibition at 10 µM (PI-3 kinase γ; PI3Kγ, compound at 10 μM) [%] | Compound | inhibition at 10 µM (PI-3 kinase γ; compound at 10 μmol/L) [%]
< 4.70 | ≥ 95 | 98.3 |  | CNC(=O)Nc1nc2c(s1)CN(c1cc(Cl)nc(N)n1)CC2 [Compound I-118] | 
< 4.70 | ≥ 95 | 98.6 |  | CNC(=O)Nc1cc2n(n1)CCN2c1cc(C(=O)N2CCOCC2)cc(-c2ccc(N)nc2)c1 [Compound I-200] | 
< 4.70 |  | 99.7 | ≥ 95 | COc1cc(N2CCc3nc(NC(=O)NCc4cc(=O)[nH]o4)sc3C2)nc(OC)n1 [Compound I-279] | 
< 4.70 |  | 92 |  | CN1CCc2cc(N3CCn4nc(NC(=O)c5cccnc5)cc43)ccc2C1=O [Compound I-347] | 91

Continued, compound first:

Compound | pIC50 (CYP2D6) | inhibition at 50 µM (PI-3 kinase γ; PI3Kγ) [%] | percentage of the test compound remained after reacting for 30 minutes (Metabolic stability test) [%] | inhibition at 10 µM (PI-3 kinase γ; PI3Kγ, compound at 10 μM) [%] | inhibition at 10 µM (PI-3 kinase γ; compound at 10 μmol/L) [%]
CNC(=O)Nc1cc2n(n1)CCN2c1ccc(S(C)(=O)=O)cc1 [Compound I-89] | < 4.70 | ≥ 95 | 93.6 |  | 
CNC(=O)Nc1nc2c(s1)CN(c1ccnc(OC)n1)CC2 [Compound I-142] | < 4.70 | ≥ 95 | 97.5 |  | 
COc1cc(N2CCc3nc(NC(=O)NCC(=O)O)sc3C2)nc(OC)n1 [Compound I-208] | < 4.70 | 93 | 87.2 |  | 
CN1CCc2cc(N3CCn4nc(NC(=O)c5ccco5)cc43)ccc2C1=O [Compound I-358] | < 4.70 |  | 88.4 |  | ≥ 95
